We go through 5 compounds from patent publication US20100227918A1, “STREPTOMYCES-DERIVED ANTIMICROBIAL COMPOUND AND METHOD OF USING SAME AGAINST ANTIBIOTIC-RESISTANT BACTERIA” (Taro Pharmaceuticals North America, Inc., priority 2006, published 2010).

One test deals with E. coli. The test can be described thus: antimicrobial paper disc assay (zone of inhibition). It counts as cell-based. To be noted: known antibiotic controls, zone diameters of the classes (L1). On the procedure: (§1) The antimicrobial assay was performed as described in USP (See, Molecular Cloning, A Laboratory Manual). In brief, tested microorganism strains were grown in optimal culture media for growth at the optimal growth temperature for about 16 hours with shaking. Tested plates were prepared as follows. First, base agar layer-media were prepared as per USP. The media were then autoclaved, and cooled to 48° C. Once cooled to 48° C., 20 mL of the cooled media was poured onto a sterile polystyrene petri dish. This base agar layer was further allowed to solidify for 30 minutes (agar was added as a solidifying agent). Second, seed agar layers were prepared as per USP. The media were then autoclaved, and cooled to 48° C. Once cooled to 48° C., 1 mL of tested microorganism strain (already grown for 16 hours as described in the first step above) was added to the seed agar media. The seed agar media was gently swirled to mix. Five (5) mL of the seed agar media was pipetted on top of the base agar layer. Care was taken to avoid air bubbles. This seed agar media was allowed to cool for about 15 minutes at room temperature. Plates were stored at 4° C. until needed.
(§2) Ten (10) μl of each of the concentrated supernatants (described above) were pipetted onto a sterile filter paper disc. The sterile filter paper discs were dried in air for approximately 5 minutes. The sterile filter paper discs were carefully applied onto the surface of the plates (prepared as described above). Plates holding sterile filter discs were incubated either at 37° C. (for Micrococcus luteus, E. coli, and Pseudomonas aeriginosa) or at 30° C. (for Candida albicans) for a timer period of 24 hours. Negative controls included liquid culture media. Positive controls included known antimicrobial compounds such as vancomycin (against gram-positive bacteria), tetracycline (against gram-positive/gram-negative bacteria), and amphotericin B (against yeast/fungi).
(§3) Antimicrobial Assays: 10 μl of the 10-fold concentrated supernatants from each of the six (6) isolated colony was assayed for their antimicrobial activity against the twelve (12) microorganisms as listed above. The antimicrobial assay used in the tertiary screening was similar to that used in the secondary screening. In brief, tested microorganism strains were grown in optimal culture media for growth at the optimal growth temperature for about 16 hours with shaking. Tested plates were prepared as follows. First, base agar layer-media were prepared as per USP. The media were then autoclaved, and cooled to 48° C. Once cooled to 48° C., 20 mL of the cooled media was poured onto a sterile polystyrene petri dish. This base agar layer was further allowed to solidify for 30 minutes (agar was added as a solidifying agent). Second, seed agar layers were prepared as per USP. The media were then autoclaved, and cooled to 48° C. Once cooled to 48° C., 1 mL of tested microorganism strain (already grown for 16 hours as described in the first step above) was added to the seed agar media. The seed agar media was gently swirled to mix. Five (5) mL of the seed agar media was pipetted on top of the base agar layer. Care was taken to avoid air bubbles. This seed agar media was allowed to cool for about 15 minutes at room temperature. Plates were stored at 4° C. until needed.
(§4) Ten (10) μl of each of the concentrated supernatants were pipetted onto a sterile filter paper disc. The sterile filter paper discs were dried in air for approximately 5 minutes. The sterile filter paper discs were carefully applied onto the surface of the plates. Plates holding sterile filter discs were incubated either at 37° C. (for Staphylococcus aureus, MRSA, VRSA, Enterococcus faecilis, VRE, Micrococcus luteus, E. coli, Serratia marcesens and Pseudomonas aeriginosa) or at 30° C. (for Candida albicans) for a time period of 24 hours. Negative controls included liquid culture media.

The next test concerns Staphylococcus aureus. The description is as above. It counts as cell-based. To be noted: HPLC-purified material (>99% purity) diluted to 0.1 μg/mL, known antibiotic controls, zone diameters of the classes (L1).
In test [1] the test system is Methicillin-Resistant Staphylococcus aureus. The test is described as above. Type of test: cell-based. The settings on record: HPLC-purified material (>99% purity) diluted to 0.1 μg/mL, known antibiotic controls, zone diameters of the classes (L1).
In another test the test system is Candida albicans. The description is as above. It counts as cell-based. The settings on record: known antibiotic controls, zone diameters of the classes (L1). On the procedure: as §1, §2, §3, §4
The next test relates to Pseudomonas aeriginosa. The test is described as above. Type of test: cell-based. The settings on record: known antibiotic controls, zone diameters of the classes (L1). On the procedure:
as §1, §2, §3, §4

The test system of another test is Enterococcus faecilis. Described as above. Type of test: cell-based. The settings on record: HPLC-purified material (>99% purity) diluted to 0.1 μg/mL, known antibiotic controls, zone diameters of the classes (L1). On the procedure: as §3
as §4, with “media. Positive controls included known antimicrobial compounds such as vancomycin (against gram-positive bacteria), tetracycline (against gram-positive/gram-negative bacteria), and amphotericin B (against yeast/fungi).” for “media.”
(§5) In general, a zone of inhibition visualized as having a diameter of about 7-10 mm is classified as “+”; a diameter of about 11-14 mm is “++”; a diameter of about 15-18 mm is “+++”; a diameter of about 19-22 mm is “++++”, and a diameter of greater than 23 mm is classified as “+++++”.
(§6) The HPLC-purified material was diluted with sterile distilled water to a concentration of 0.1 μg/mL. The diluted HPLC-purified material was assayed for antimicrobial activity using the antimicrobial assay as described above. The diluted HPLC-purified material was assayed for its antimicrobial activity against ten (10) microorganisms; namely, 1) Staphylococcus aureus; 2) methicillin-resistant Staphylococcus aureus; 3) vancomycin-resistant Staphylococcus aureus; 4) Enterococcus faecilis; 5) vancomycin-resistant Enterococcus faecilis; 6) Mycobacterium smegmatis; 7) E. coli; 8) Pseudomonas aeriginosa; 9) Serratia marcesens; and 10) Candida albicans.

The subject of the next test is Mycobacterium smegmatis. The description is as above. To be noted: HPLC-purified material (>99% purity) diluted to 0.1 μg/mL, known antibiotic controls, zone diameters of the classes (L1). It counts as cell-based. On the procedure:
as §3
as §4, with “media. Positive controls included known antimicrobial compounds such as vancomycin (against gram-positive bacteria), tetracycline (against gram-positive/gram-negative bacteria), and amphotericin B (against yeast/fungi).” for “media.”
as §5, §6

Another test relates to Serratia marcesens. Described as above. To be noted: known antibiotic controls, zone diameters of the classes (L1). Type of test: cell-based. On the procedure: as §3
as §4, with “media. Positive controls included known antimicrobial compounds such as vancomycin (against gram-positive bacteria), tetracycline (against gram-positive/gram-negative bacteria), and amphotericin B (against yeast/fungi).” for “media.”
as §5, §6

Test [2] concerns Vancomycin-Resistant Enterococcus faecilis. Described as above. Type of test: cell-based. To be noted: HPLC-purified material (>99% purity) diluted to 0.1 μg/mL, zone diameters of the classes (L1). On the procedure:
as §3
as §4, with “media. Positive controls included known antimicrobial compounds such as vancomycin (against gram-positive bacteria), tetracycline (against gram-positive/gram-negative bacteria), and amphotericin B (against yeast/fungi).” for “media.”
as §5, §6

Test [3] has as its system Vancomycin-Resistant Staphylococcus aureus. The test is described as above. It counts as cell-based. To be noted: HPLC-purified material (>99% purity) diluted to 0.1 μg/mL, zone diameters of the classes (L1). On the procedure: as §3
as §4, with “media. Positive controls included known antimicrobial compounds such as vancomycin (against gram-positive bacteria), tetracycline (against gram-positive/gram-negative bacteria), and amphotericin B (against yeast/fungi).” for “media.”
as §5, §6

A further test deals with Mycobacteria smegmatis. To be noted: Journal of Antibiotics 29(7), 756-8; cited from earlier work.
For test [4], the system named is some gram-positive bacteria (such as Staphylococcus and Streptococcus). To be noted: prior art, U.S. Pat. No. 3,966,913 and Japanese patents; cited from earlier work.
Test [5] deals with penicillin-resistant Staphylococcus. The settings on record: prior art; cited from earlier work.
Test [6] relates to methicillin or vancomycin resistant gram-positive bacteria. To be noted: prior art; cited from earlier work.
The mark [7] stands for this setting: HPLC-purified material (>99% purity) diluted to 0.1 μg/mL, paper disc assay.
Where [8] appears, read: tertiary screening, 10 μl of 10-fold concentrated supernatant on paper disc, 37° C., 24 hours.

For the compound `CN(C)[C@@H]1C(O)=C(C(N)=O)C(=O)[C@@]2(O)C(O)=C3C(=O)c4c(O)cccc4[C@@](C)(O)[C@H]3C[C@@H]12` [tetracycline], the “Antimicrobial Activity (zone of inhibition), E. coli” value with E. coli (setting [7]) and with E. coli (setting [8]) was “tetracycline (+++++)” throughout.

In the case of `CC1OC2CC(=O)OC2C2=C1C(=O)c1c(ccc(C3CC(N(C)C)C(O)C(C)O3)c1O)C2=O` [Purified Lactoquinomycin, 2H-Furo[3,2-b]naphtho[2,3-d]pyran-2,6,11-trione,3,3a,5,11b-tetrahydro-7-hydroxy-5-methyl-8-[2,3,6-trideoxy-3-(dimethylamino)-β-D-arabino-hexopyranosyl]-,(3aR,5R,11bR)], the “Antimicrobial Activity (zone of inhibition), Staphylococcus aureus” value with Staphylococcus aureus is given as “+++++”. In addition, the “Antimicrobial Activity (zone of inhibition), Methicillin-Resistant Staphylococcus aureus” value in test [1] was “+++++”. Further, the “Antimicrobial Activity (zone of inhibition), Candida albicans” value in the test with Candida albicans (setting [7]) is “−”. Also, the “Antimicrobial Activity (zone of inhibition), E. coli” value in the test with E. coli (setting [7]) is “−”. Also, the “Antimicrobial Activity (zone of inhibition), Pseudomonas aeriginosa” value with Pseudomonas aeriginosa (setting [7]) is “−”. Moreover, in the test with Enterococcus faecilis, the “Antimicrobial Activity (zone of inhibition), Enterococcus faecilis” value is reported as “+++”. In the test with Mycobacterium smegmatis, the “Antimicrobial Activity (zone of inhibition), Mycobacterium smegmatis” value was “+++++”. Also, the “Antimicrobial Activity (zone of inhibition), Serratia marcesens” value in the test on Serratia marcesens (setting [7]) is on record as “−”. In addition, in test [2], the “Antimicrobial Activity (zone of inhibition), Vancomycin-Resistant Enterococcus faecilis” value is recorded as “+++”. Also, the “Antimicrobial Activity (zone of inhibition), Vancomycin-Resistant Staphylococcus aureus” value in [3] was “+++++”. The “antimicrobial activity against mycobacteria (i.e. Mycobacteria smegmatis)” value with Mycobacteria smegmatis was “no antimicrobial activity”.

Turning to `CC1OC2CC(=O)OC2C2=C1C(=O)c1c(ccc(C3CC(N(C)C)C(O)C(C)O3)c1O)C2=O` (stereo not shown) [Lactoquinomycin A], the “antimicrobial activity against some gram-positive bacteria (such as Staphylococcus and Streptococcus)” value in test [4] was “exert an antimicrobial activity”. In [5], the “antimicrobial activity against certain penicillin-resistant Staphylococcus” value is “exert an antimicrobial activity”. Also, the “antimicrobial activity against methicillin or vancomycin resistant gram-positive bacteria” value in test [6] is reported as “no antimicrobial activity”.

Regarding `C[C@@H]1[C@H](O)[C@@H](C)/C=C/C=C/C=C/C=C/C=C/C=C/C=C/[C@H](O[C@@H]2O[C@H](C)[C@@H](O)[C@H](N)[C@@H]2O)C[C@@H]2O[C@](O)(C[C@@H](O)C[C@@H](O)[C@H](O)CC[C@@H](O)C[C@@H](O)CC(=O)O[C@H]1C)C[C@H](O)[C@H]2C(=O)O` [amphotericin B], the “Antimicrobial Activity (zone of inhibition), Candida albicans” value with Candida albicans (setting [7]) is on record as “amphotericin B (+++++)”; in the test with Candida albicans (tertiary screening, 10 μl of 10-fold concentrated supernatant on paper disc, 30° C., 24 hours) it was “amphotericin B (+++++)”.

Take gentamicin: the “Antimicrobial Activity (zone of inhibition), Pseudomonas aeriginosa” value in the test on Pseudomonas aeriginosa (setting [7]) and in the test on Pseudomonas aeriginosa (setting [8]) was “gentamicin (+++++)” in each case. Also, the “Antimicrobial Activity (zone of inhibition), Serratia marcesens” value in the test with Serratia marcesens (setting [7]) and in the test with Serratia marcesens (setting [8]) was “gentamicin (+++++)” throughout.
